How the values were obtained:
[1] = tested on: human liver microsomes; assay: Time course of metabolite formation; format: in vitro ADME; settings: PPL at S50, 2 mg/mL HLM
Description: The formation of metabolites was investigated through the application of three distinct mass spectrometry instruments. The incubation time was set at 50 min and 2 mg/mL of microsomal protein was employed in these experiments. The increase in the incubation time and microsomal protein aimed to produce a higher amount of metabolites. The concentration of PPL was 283.6 μM. After metabolism reaction, in order to favor a higher recovery of metabolites from microsomal medium liquid-liquid extraction was performed using 1 mL of ethyl acetate as the extractor solvent. The samples (n = 10) were shaken for 10 min at 1500 rpm using an orbital agitator and centrifuged for 5 min at 2860 × g. After that, 750 μL of supernatant was collected, and each one was pooled from ten single reactions. Next, the samples were evaporated to dryness by using a gentle stream of compressed air. To facilitate the identification of compounds that have hydroxyl groups, after sample preparation and before GC-MS analysis, silylation reactions were performed in the extracted samples. The residues were reconstituted in 50 μL of pyridine and 200 μL of BSTFA solution containing 2% TMCS. Following, the samples were slightly agitated and then incubated in a water bath at 75 °C for 120 min. […]
The incubation time was evaluated in different times (5, 10, 20, 40 and 50 min) in order to investigate the formation of metabolites. […]

[2] = tested on: recombinant human CYP (rhCYP) isoforms; assay: P450 reaction phenotyping by rhCYP isoforms; format: in vitro ADME; settings: 50 min incubation
Description: The capacity of selected major human P450 isoforms to metabolize PPL was screened using human recombinant isoenzymes. Briefly, PPL (S50 concentration) was added into a 200 μL incubation mixture containing P450 isoform (50 pmol/mL for CYP3A4, CYP1A2, CYP2C9, 2B6, 2D6 and 2C19; 25 pmol/mL for CYP2C8 and […]; final concentrations), NADPH regeneration system solution A (1.3 mM NADP^+ and 3.3 mM glucose-6-phosphate), NADPH regeneration system solution B (0.4 U/mL glucose-6-phosphate dehydrogenase), potassium phosphate buffer pH 7.4 (100 mM), except for CYP2C9 where the phosphate buffer was substituted by tris buffer pH 7.5 (100 mM), maintaining for 50 min in shaking water bath. In order to enhance the sensibility one sample was pooled from 4 single reactions. PPL metabolites were analyzed by a GC-MS as described previously. The MS peak areas of PPL metabolites were recorded to determine the contributions of the P450 enzymes.
(§1) Phenotyping study at 50 min. In order to evaluate the CYP isoforms involved in M4 formation, a similar study as described in the main text was performed, except by the time of incubation of 50 min (Fig. S13).

[3] = target: CYP2C9 (Homo sapiens, UniProt P11712); assay: in vitro
CYP2C9, sequence (P11712 whole entry): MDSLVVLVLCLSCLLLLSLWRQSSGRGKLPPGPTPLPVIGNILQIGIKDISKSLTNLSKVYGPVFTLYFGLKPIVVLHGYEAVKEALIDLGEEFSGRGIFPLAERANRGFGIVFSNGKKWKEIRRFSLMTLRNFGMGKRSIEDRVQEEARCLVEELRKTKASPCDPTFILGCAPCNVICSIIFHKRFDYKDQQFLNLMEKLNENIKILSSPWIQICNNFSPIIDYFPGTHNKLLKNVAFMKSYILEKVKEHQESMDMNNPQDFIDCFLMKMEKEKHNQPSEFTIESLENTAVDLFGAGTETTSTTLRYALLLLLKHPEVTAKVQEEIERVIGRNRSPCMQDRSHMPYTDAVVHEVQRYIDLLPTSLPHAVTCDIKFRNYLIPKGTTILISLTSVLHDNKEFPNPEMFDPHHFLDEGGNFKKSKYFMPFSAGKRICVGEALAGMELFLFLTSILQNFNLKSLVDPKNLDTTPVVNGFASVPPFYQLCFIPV

[4] = tested on: human liver microsomes; assay: P450 reaction phenotyping by selective human enzyme inhibitors; format: in vitro ADME; settings: PPL at S50/2, 10 min incubation
Description: (§2) This study was performed by evaluating the PPL metabolism and the produced metabolites in the presence of these specific inhibitors. […] The incubation protocol was the same for all inhibitors, except for orphenadrine, which was pre-incubated with all incubation constituents at 37 °C for 15 min before the reaction was initiated by the addition of substrate. The concentration of PPL used in this study corresponded to its S50/2. […] In order to enhance the sensibility one sample was pooled from 4 single reactions. Sample preparations and GC-MS analysis were performed according to assay previous described. The results were expressed as % of remain activity and compared with control sample lacking the inhibitors.
as §1

[5] = tested on: CYP3A4; assay: as above; format: in vitro ADME; settings: human, human liver microsomes, probe PPL (formation of metabolite M2)
Description: as §2, §1

[6] = tested on: epoxide hydrolase; assay: Epoxide hydrolase involvement on M2 catalysis (valproic acid); format: in vitro ADME, human; settings: valproic acid 550 μM, PPL 63.8 µM, 50 min, 2 mg/mL HLM, with NADPH
Description: Epoxide hydrolase involvement on M2 catalysis. To evaluate the epoxide hydrolase involvement on M2 catalysis (Fig. S14), PPL (63.8 µM) was incubated alone or in the presence of valproic acid (550 μM), an epoxide hydrolase inhibitor. The incubation was carried out for 50 minutes at 37°C with 2 mg/mL HLM. Sample preparations and chromatographic analysis were performed according to assay described in phenotyping study session. The results were expressed as % of remain activity and compared with control sample with the absence of the inhibitor.

## COc1cc(/C=C/C(=O)N2CCC3OC3C2=O)cc(OC)c1OC (centres unmarked) [M2]
[1]
  incubation time of maximum production of the metabolite: 20 min

## COc1cc(/C=C/C(=O)N2CCC(O)C(O)C2=O)cc(OC)c1OC (centres unmarked) [M4]
[1]
  incubation time after which the metabolite starts to be produced (lag-time): > 40 min
[2]
  recombinant isoforms that contributed to M4 formation: CYP2C19, CYP2D6, CYP2E1, CYP2B6 and CYP2C8

## O=C(O)Cc1ccccc1Nc1c(Cl)cccc1Cl [Diclofenac, diclofenac]
[3]
  Km: 47 µM

## CC(=O)N1CCN(c2ccc(OCC3COC(Cn4ccnc4)(c4ccc(Cl)cc4Cl)O3)cc2)CC1 (centres unmarked) [ketoconazole]
[4]; ketoconazole 2 μM
  inhibitory effect on the formation of metabolite M3: significant inhibitory effect
[5]
  inhibition at 10 min, 2 µM: 83%

## CCCC(CCC)C(=O)O [valproic acid]
[6]
  amount of metabolite M4 produced in presence of valproic acid: same amount produced

## O=c1cc(-c2ccccc2)oc2c1ccc1ccccc12 [α-naphthoflavone]
[4]; α-naphthoflavone (CYP1A2 inhibitor) 1 μM
  inhibition of the formation of metabolite M1: strong inhibition

Source: PMC5041077, “Metabolic profile and safety of piperlongumine” (Scientific Reports, 2016)
